We go through five compounds from patent US12005072B2, “HIV drug combination for increasing barrier against resistance” (Merck Sharp & Dohme LLC, priority 2018, dated 2024).

In one test the test system is WT virus. Put plainly: Susceptibility of virus to NRTIs (antiviral potency), Example 1. The note with it: for EC50: Human immunodeficiency virus 1. In kind it is cell-based, HIV-1. The protocol:
(§1) Common doravirine-associated mutants containing F227C substitution were derived from SDM. The experimental conditions for susceptibility evaluation are described in Lai, Ming-Tain, et al., In Vitro Characterization of MK-1439, a Novel HIV-1 Nonnucleoside Reverse Transcriptase Inhibitor. Antimicrobial Agents and Chemotherapy 58(3): 1652-1663, 2014. These mutants conferred more than 100-fold of resistance to DOR. The susceptibility of the mutants to EFdA and 3TC was also evaluated under the same conditions. […] In contrast, the mutants are hypersusceptible to EFdA with 2-5 fold increase in susceptibility with all mutants except the quardruple mutant.

The subject of test [1] is A98G/V106I/H221Y/F227C mutant. Put plainly: Susceptibility of SDM derived DOR-resistant mutant to NRTIs, Example 1. In kind it is cell-based, HIV-1. The note with it: for EC50: Human immunodeficiency virus 1, read-out: Antiviral Potency. Here is the method:
as §1

For another test, the system named is F227C mutant. The description is as above. The note with it: for EC50: Human immunodeficiency virus 1, read-out: Antiviral Potency. The class given is cell-based, HIV-1. The protocol:
as §1

The next test deals with V106I/F227C mutant. Described as above. The class given is cell-based, HIV-1. The conditions noted are these: for EC50: Human immunodeficiency virus 1, read-out: Antiviral Potency. Here is the method: as §1
The next test has as its system A98G/F227C mutant. The test is described as above. In kind it is cell-based, HIV-1. The note with it: for EC50: Human immunodeficiency virus 1, read-out: Antiviral Potency (nM). An excerpt: (§2) Common doravirine-associated mutants containing F227C substitution were derived from SDM.
The test system of a further test is V106I/F227C/H221Y mutant. The test is described as above. In kind it is cell-based, HIV-1. The note with it: for EC50: Human immunodeficiency virus 1, read-out: Antiviral Potency.
Source text: as §2

For a further test, the system named is V106M/F227C mutant. The test is described as above. The conditions noted are these: for EC50: Human immunodeficiency virus 1, read-out: Antiviral Potency. In kind it is cell-based, HIV-1.
Source text: as §2

Test [2] deals with K103N mutant virus. Put plainly: Suppression of virus replication in vitro in 100% normal human serum; inhibitory quotient. The class given is cell-based, HIV-1. The conditions noted are these: ratio of clinical trough concentration over antiviral EC50. The protocol: (§3) In addition, the susceptibility of a broader array of clinical-NNRTI-associated mutant viruses (a total of 96 viruses) to doravirine and other benchmark NNRTIs was investigated. […] See Lai, Ming-Tain, et al., In Vitro Characterization of MK-1439, a Novel HIV-1 Nonnucleoside Reverse Transcriptase Inhibitor. Antimicrobial Agents and Chemotherapy 58(3): 1652-1663, 2014.
(§4) Inhibitory quotients (IQs) were calculated by determining the ratio of the clinical trough concentration over the antiviral EC50 of various viruses. IQs have been employed to predict the potential efficacy of anti-viral agents.

Test [3] deals with K103N/Y181C mutant virus. Described as above. The class given is cell-based, HIV-1. The note with it: ratio of clinical trough concentration over antiviral EC50. The protocol: as §3, §4
Test [4] has as its system Y181C mutant virus. The test is described as above. The class given is cell-based, HIV-1. The note with it: ratio of clinical trough concentration over antiviral EC50. The protocol:
as §3, §4

Test [5] has as its system other prevalent NNRTI-associated mutants. Put plainly: Inhibitory quotients against other NNRTI-associated mutants. The class given is cell-based, HIV-1. The note with it: with the exception of Y188L. Here is the method: as §4
The subject of the next test is wild type (WT) virus. The note with it: 100% normal human serum (NHS), read-out: EC50 suppressing replication; cited from earlier work.
Test [6] concerns K103N mutant virus. The note with it: 100% normal human serum (NHS), read-out: EC50 suppressing replication; cited from earlier work.
For test [7], the system named is Y181C mutant virus. The note with it: 100% normal human serum (NHS), read-out: EC50 suppressing replication; cited from earlier work.
Test [8] has as its system K103N/Y181C mutant virus. The conditions noted are these: 100% normal human serum (NHS), read-out: EC50 suppressing replication; cited from earlier work.
The test system of test [9] is clinical-NNRTI-associated mutant viruses (a total of 96 viruses). The conditions noted are these: 96 clinical NNRTI-associated mutant viruses; cited from earlier work.
Test [10] has as its system HIV-1. The conditions noted are these: escalating concentrations of DOR; cited from earlier work.
For test [11], the system named is Common doravirine-associated mutants containing F227C substitution. In words: Susceptibility of the SDM derived doravirine-associated mutants as a group. In kind it is cell-based, HIV-1. The protocol: Site-directed mutagenesis (SDMs) were generated for the substitutions V1061/F227C, V1061/H221Y/F227C, A98G/V1061/H221Y/F227C, and V106M/F227C and their susceptibility to NNRTIs was evaluated. Most of the mutants conferred a high level of resistance to DOR with a fold change (FC)>100 (FC: mutantEC50 versus WTEC50).
FIG. 1. Susceptibility of SDM derived DOR-resistant clinical mutants to NRTIs. […] In contrast, the mutants are hypersusceptible to EFdA with 2-5 fold increase in susceptibility except the quardruple mutant.
as §1

Test [12] deals with HIV-1. Put plainly: Proof of concept study in HIV-1 infected patients. The class given is in vivo, human. The note with it: single dose as low as 0.5 mg. Here is the method:
EFdA was tested in HIV-1 infected patients for a proof of concept study.

For the next test, the system named is HIV. The note with it: compared with EFddA lacking a 3′-OH; cited from earlier work.

With `Nc1ccn([C@@H]2CS[C@H](CO)O2)c(=O)n1` [3TC, lamivudine, reference compound], the “Fold-change (EC50mut/WT EC50wt)” value in the test with WT virus was 1.0; in test [1], 1.93; in the test on F227C mutant, 2.26; in the test with V106I/F227C mutant, 1.15. The EC50 was 601 ± 142 nM in the test on WT virus; 1160 ± 314 nM in test [1]; 1360 ± 94 nM in the test with F227C mutant; 692 ± 212 nM with V106I/F227C mutant; 809 ± 146 nM in the test on A98G/F227C mutant; 758 ± 244 nM with V106I/F227C/H221Y mutant. Besides, the EC50 in the test on V106M/F227C mutant worked out at 771 ± 62 nM.

Turning to `Cn1c(Cn2ccc(C(F)(F)F)c(Oc3cc(Cl)cc(C#N)c3)c2=O)n[nH]c1=O` [Doravirine], the “Inhibitory quotient (IQ)” value in the test on K103N mutant virus [2] is recorded as 39; in the test on K103N/Y181C mutant virus [3] it was 25; in the test with Y181C mutant virus [4], 27. The “IQ values compared with RPV and EFV” value in test [5] is “higher IQ values than RPV and EFV”. Moreover, the EC50 was 12 nM with wild type (WT) virus, 21 nM in the test with K103N mutant virus [6], 31 nM with Y181C mutant virus [7] and 33 nM in the test with K103N/Y181C mutant virus [8]. Further, the “mutant profile versus benchmark NNRTIs” value in test [9] is “superior overall to that of efavirenz (EFV) and comparable to that of etravirine (ETR) and rilpivirine (RPV)”. The “mutations emerging in resistance selection” value in the test on HIV-1 [10] was “V106A mutant led two mutation pathways, followed by the emergence of F227L and L234I substitutions”.

On to `O=C1Nc2ccc(Cl)cc2[C@@](C#CC2CC2)(C(F)(F)F)O1` [EFV, efavirenz], for which the “Inhibitory quotient (IQ)” value stood at 2.5 in the test on K103N mutant virus [2], 1.9 in the test with K103N/Y181C mutant virus [3] and 60 with Y181C mutant virus [4].

In the case of `C#C[C@]1(CO)O[C@@H](n2cnc3c(N)nc(F)nc32)C[C@@H]1O` [EFdA, 4′-ethynyl-2-fluoro-2′-deoxyadenosine], the “Fold-change (EC50mut/WT EC50wt)” value in the test on WT virus was found to be 1.0; in test [1], 1.00; in the test on F227C mutant, 0.18; with V106I/F227C mutant, 0.44; in the test on A98G/F227C mutant (A98G/F227C), 0.18; in the test on V106I/F227C/H221Y mutant it was 0.49. Moreover, the “Fold-change (EC50mut/WT EC50wt)” value in the test on V106M/F227C mutant worked out at 0.37. In addition, the EC50 turned out to be 0.81 ± 0.029 nM in the test with WT virus; 0.81 ± 0.124 nM in [1]; 0.15 ± 0.026 nM in the test with F227C mutant; 0.35 ± 0.048 nM in the test on V106I/F227C mutant; 0.15 ± 0.026 nM in the test on A98G/F227C mutant; 0.4 ± 0.075 nM in the test on V106I/F227C/H221Y mutant. In the test with V106M/F227C mutant, the EC50 was found to be 0.3 ± 0.048 nM. In addition, the “susceptibility / potency of mutants compared with WT virus” value in [11] (mutants containing F227C substitution) was “better potency compared to WT virus”. Besides, the “fold increase in susceptibility (hypersusceptible)” value in test [11] ({}) is 2-5 fold. Also, the “duration of suppression of HIV replication” value in the test on HIV-1 [12] is on record as “at least seven days”. Besides, the “antiviral activity relative to EFddA” value in the test with HIV is on record as 10,000 times.

As to `Cc1cc(/C=C/C#N)cc(C)c1Nc1ccnc(Nc2ccc(C#N)cc2)n1` [RPV, rilpivirine], the “Inhibitory quotient (IQ)” value is given as 4.6 in the test on K103N mutant virus [2], 0.8 with K103N/Y181C mutant virus [3] and 1.4 with Y181C mutant virus [4].
